Assay results as given in US8445674B2, “Heterocyclyl compounds” (Hoffmann-La Roche Inc, priority 2009, dated 2013).

These molecules were tested against T1, human chemokine receptor 2 isoform B (Homo sapiens, UniProt P41597) (assay: Calcium mobilization assay (FLIPR, antagonist activity against MCP-1)). Conditions: Ca mobilisation assay, CHOK1-CCR2B-A5 cells, inhibition of calcium increase induced by 20 nM MCP-1.
T1 construct: host or cells: CHOK1-CCR2B-A5 cells (CHO-K1)
T1 sequence (P41597 1-360 isoform P41597-2): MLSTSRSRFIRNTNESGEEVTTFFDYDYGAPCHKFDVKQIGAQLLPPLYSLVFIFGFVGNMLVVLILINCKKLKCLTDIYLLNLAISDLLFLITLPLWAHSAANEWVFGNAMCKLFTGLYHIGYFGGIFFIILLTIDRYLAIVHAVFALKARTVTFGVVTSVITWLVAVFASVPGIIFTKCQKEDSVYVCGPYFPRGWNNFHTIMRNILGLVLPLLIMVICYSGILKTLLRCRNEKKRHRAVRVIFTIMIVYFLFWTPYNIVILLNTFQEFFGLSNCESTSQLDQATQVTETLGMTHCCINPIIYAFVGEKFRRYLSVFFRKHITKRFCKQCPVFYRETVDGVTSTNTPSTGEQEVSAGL
Assay type: cell-based
In short: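 CHOK1 cells stably overexpressing human CCR2B, loaded with 4 μM Fluo-4 for 2 h at 30° C, compounds added and agonist signal read by FLIPR for 80 s. After 20-30 min at 30° C, 20 nM MCP-1 was added and fluorescence read again. IC50 is 50% inhibition of specific calcium increase (max minus basal).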

Molecule | IC50 [nM]
COC(=O)[C@H](CCC(=O)N1CCC2(CC2)[C@H](O)C1)N1CCN(c2ccc(C(F)(F)F)c(Cl)c2)CCC1=O [Example 123, (S)-2-[4-(3-Chloro-4-trifluoromethyl-phenyl)-7-oxo-[1,4]diazepan-1-yl]-5-((S)-4-hydroxy-6-aza-spiro[2.5]oct-6-yl)-5-oxo-pentanoic acid methyl ester] | 63.1
(rac)-2-{4-[(E)-3-(3,4-Dichloro-phenyl)-acryloyl]-7-oxo-[1,4]diazepan-1-yl}-4-hydroxy-N,N-dimethyl-butyramide [Example 4] | 370
O=C(/C=C/c1ccc(Cl)c(Cl)c1)N1CCC(=O)N(CCC(=O)N2CCC(O)(c3ccccc3)CC2)CC1 [Example 72, 1-[(E)-3-(3,4-Dichloro-phenyl)-acryloyl]-4-[3-(4-hydroxy-4-phenyl-piperidin-1-yl)-3-oxo-propyl)-[1,4]diazepan-5-one] | 162
O=C1CCN(C(=O)Nc2ccc(Cl)c(Cl)c2)CCN1CCCC(=O)N1CCC2(CC2)[C@H](O)C1 [Example 117, 4-[4-((S)-4-Hydroxy-6-aza-spiro[2.5]oct-6-yl)-4-oxo-butyl]-5-oxo-[1,4]diazepane-1-carboxylic acid (3,4-dichloro-phenyl)-amide] | 20.2
C[C@H]1C(=O)N(CCC(F)C(=O)N2CCC3(CC3)[C@H](O)C2)CCN1C(=O)Nc1ccc(C(F)(F)F)c(Cl)c1 (single isomer, unassigned) [Example 138, (S)-4-[(S or R)-3-fluoro-4-((S)-4-hydroxy-6-aza-spiro[2.5]oct-6-yl)-4-oxo-butyl]-2-methyl-3-oxo-piperazine-1-carboxylic acid (3-chloro-4-trifluoromethyl-phenyl)-amide] | 1.4
C[C@H]1CCN(C(=O)CCCN2CCN(C(=O)Nc3cccc(Cl)c3)[C@@H](C)C2=O)C[C@H]1O [Example 111, (S)-4-[4-((3S,4S)-3-Hydroxy-4-methyl-piperidin-1-yl)-4-oxo-butyl]-2-methyl-3-oxo-piperazine-1-carboxylic acid (3-chloro-phenyl)-amide] | 893
CC1CCN(C(=O)CCN2CCN(C(=O)/C=C/c3ccc(Cl)c(Cl)c3)CCC2=O)CC1O (racemic) [Example 71, (rac)-1-[(E)-3-(3,4-Dichloro-phenyl)-acryloyl]-4-[3-(3-hydroxy-4-methyl-piperidin-1-yl)-3-oxo-propyl]-[1,4]diazepan-5-one] | 681
O=C(/C=C/c1ccc(Cl)c(Cl)c1)N1CCC(=O)N(CCC(=O)N2CCC(CO)CC2)CC1 [Example 69, 1-[(E)-3-(3,4-Dichloro-phenyl)-acryloyl]-4-[3-(4-hydroxymethyl-piperidin-1-yl)-3-oxo-propyl]-[1,4]diazepan-5-one] | 481
CNC(=O)[C@H](CCC(=O)N1CCC2(CC2)[C@H](O)C1)N1CCN(C(=O)Nc2ccc(C(F)(F)F)c(Cl)c2)[C@@H](C)C1=O [Example 142, (S)-4-[(S)-4-((S)-4-Hydroxy-6-aza-spiro[2.5]oct-6-yl)-1-methylcarbamoyl-4-oxo-butyl]-2-methyl-3-oxo-piperazine-1-carboxylic acid (3-chloro-4-trifluoromethyl-phenyl)-amide] | 1320
O=C(/C=C/c1ccc(Cl)c(Cl)c1)N1CCC(=O)N(CCC(=O)N2CCC(O)CC2)CC1 [Example 1, 1-[(E)-3-(3,4-Dichloro-phenyl)-acryloyl]-4-[3-(4-hydroxy-piperidin-1-yl)-3-oxo-propyl]-[1,4]diazepan-5-one] | 2660
C[C@H]1C(=O)N(CCCC(=O)N2CCS(=O)(=O)CC2)CCN1C(=O)Nc1cccc(Cl)c1 [Example 110, (S)-4-[4-(1,1-Dioxo-1 lambda*6*-thiomorpholin-4-yl)-4-oxo-butyl]-2-methyl-3-oxo-piperazine-1-carboxylic acid (3-chloro-phenyl)-amide] | 1340
C[C@H]1C(=O)N([C@H](CO)CCC(=O)N2CCC3(CC3)[C@H](O)C2)CCN1C(=O)Nc1ccc(C(F)(F)F)c(C(F)(F)F)c1 [Example 144, (S)-4-[(S)-4-((S)-4-Hydroxy-6-aza-spiro[2.5]oct-6-yl)-1-hydroxymethyl-4-oxo-butyl]-2-methyl-3-oxo-piperazine-1-carboxylic acid (3,4-bis-trifluoromethyl-phenyl)-amide] | 4.5
O=C(/C=C/c1ccc(Cl)c(Cl)c1)N1CCC(=O)N(CC(=O)N2CCC3(CCCO3)CC2)CC1 [Example 98, 1-[(E)-3-(3,4-Dichloro-phenyl)-acryloyl]-4-[2-(1-oxa-8-aza-spiro[4.5]dec-8-yl)-2-oxo-ethyl]-[1,4]diazepan-5-one] | 1700
CC1(CO)CCN(C(=O)CCN2CCN(C(=O)/C=C/c3ccc(Cl)c(Cl)c3)CCC2=O)CC1 [Example 87, 1-[(E)-3-(3,4-Dichloro-phenyl)-acryloyl]-4-[3-(4-hydroxymethyl-4-methyl-piperidin-1-yl)-3-oxo-propyl]-[1,4]diazepan-5-one] | 337
C[C@H]1C(=O)N(CCCC(=O)N2CCC3(CC3)[C@H](O)C2)CCN1C(=O)Nc1cccc(OC(F)(F)F)c1 [Example 31, (S)-4-[4-((S)-4-Hydroxy-6-aza-spiro[2.5]oct-6-yl)-4-oxo-butyl]-2-methyl-3-oxo-piperazine-1-carboxylic acid (3-trifluoromethoxy-phenyl)-amide] | 51
C[C@H]1C(=O)N(CCCC(=O)N2CCC3(CC3)[C@H](O)C2)CCN1C(=O)Nc1ccc(OC(F)(F)F)c(Cl)c1 [Example 34, (S)-4-[4-((S)-4-Hydroxy-6-aza-spiro[2.5]oct-6-yl)-4-oxo-butyl]-2-methyl-3-oxo-piperazine-1-carboxylic acid (3-chloro-4-trifluoromethoxy-phenyl)-amide] | 1.7
C[C@H]1C(=O)N(CCCC(=O)N2CCC(C(F)(F)F)CC2)CCN1C(=O)Nc1cccc(Cl)c1 [Example 106, (S)-2-Methyl-3-oxo-4-[4-oxo-4-(4-trifluoromethyl-piperidin-1-yl)-butyl]-piperazine-1-carboxylic acid (3-chloro-phenyl)-amide] | 3130
O=C(/C=C/c1ccc(Cl)c(Cl)c1)N1CCC(=O)N(CC(=O)N2CCC3(CCCC3)CC2)CC1 [Example 96, 4-[2-(8-Aza-spiro[4.5]dec-8-yl)-2-oxo-ethyl]-1-[(E)-3-(3,4-dichloro-phenyl)-acryloyl]-[1,4]diazepan-5-one] | 3210
C[C@@H]1CN(CCCC(=O)N2CCC3(CC3)[C@H](O)C2)C(=O)C=CN1c1ccc(C(F)(F)F)c(Cl)c1 [Example 65, (R)-1-(3-Chloro-4-trifluoromethyl-phenyl)-4-[4-((S)-4-hydroxy-6-aza-spiro[2.5]oct-6-yl)-4-oxo-butyl]-2-methyl-1,2,3,4-tetrahydro-[1,4]diazepin-5-one] | 610
COC[C@H](CCC(=O)N1CCC2(CC2)[C@H](O)C1)N1CCN(c2ccc(C(F)(F)F)c(Cl)c2)[C@@H](C)C1=O [Example 132, (S)-4-(3-Chloro-4-trifluoromethyl-phenyl)-1-[(S)-4-((S)-4-hydroxy-6-aza-spiro[2.5]oct-6-yl)-1-methoxymethyl-4-oxo-butyl]-3-methyl-piperazin-2-one] | 310
C[C@H]1C(=O)N(CCC(=O)N2CCCC(O)C2)CCN1C(=O)Nc1ccc(Cl)c(Cl)c1 (stereo partly drawn) [Example 17, (S)-4-[3-((R,S)-3-Hydroxy-piperidin-1-yl)-3-oxo-propyl]-2-methyl-3-oxo-piperazine-1-carboxylic acid (3,4-dichloro-phenyl)-amide] | 3170
C[C@@H]1CN(CCCC(=O)N2CCC3(CC3)[C@H](O)C2)C(=O)CCN1c1ccc(C(F)(F)F)c(Cl)c1 [Example 66, (R)-1-(3-Chloro-4-trifluoromethyl-phenyl)-4-[4-((S)-4-hydroxy-6-aza-spiro[2.5]oct-6-yl)-4-oxo-butyl]-2-methyl-[1,4]diazepan-5-one] | 109
C[C@H]1C(=O)N(C[C@@H](O)CC(=O)N2CCC3(CC3)[C@H](O)C2)CCN1c1ccc(C(F)(F)F)c(Cl)c1 [Example 131, (S)-4-(3-Chloro-4-trifluoromethyl-phenyl)-1-[(S)-2-hydroxy-4-((S)-4-hydroxy-6-aza-spiro[2.5]oct-6-yl)-4-oxo-butyl]-3-methyl-piperazin-2-one] | 13.1
CC1(CO)CCCN1C(=O)CCN1CCN(C(=O)/C=C/c2ccc(Cl)c(Cl)c2)CCC1=O (racemic) [Example 81, (rac)-1-[(E)-3-(3,4-Dichloro-phenyl)-acryloyl]-4-[3-(2-hydroxymethyl-2-methyl-pyrrolidin-1-yl)-3-oxo-propyl]-[1,4]diazepan-5-one] | 1680
COC(=O)NC1CCN(C(=O)CCN2CCN(C(=O)/C=C/c3ccc(Cl)c(Cl)c3)CCC2=O)CC1 [Example 88, [1-(3-{4-[(E)-3-(3,4-Dichloro-phenyl)-acryloyl]-7-oxo-[1,4]diazepan-1-yl}-propionyl)-piperidin-4-yl]-carbamic acid methyl ester] | 1750
C[C@H]1C(=O)N(CCC(=O)N2CC[C@](C)(CO)[C@H](O)C2)CCN1C(=O)Nc1ccc(Cl)c(Cl)c1 (mixture of isomers) [Example 21, (S)-4-[3-((3SR,4RS)-3-Hydroxy-4-hydroxymethyl-4-methyl-piperidin-1-yl)-3-oxo-propyl]-2-methyl-3-oxo-piperazine-1-carboxylic acid (3,4-dichloro-phenyl)-amide] | 844
